Experimental data reported in PubChem BioAssay (NCI).
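The concentration for 50% growth inhibition is given as GI50. TGI: concentration producing complete growth inhibition.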

How the values were obtained:
Test in all cases: inhibition of tumour cell growth, NCI panel, 384-well format
786-0 renal = tested on: 786-0 renal
A498 renal = tested on: A498 renal
A549 NSCLC = tested on: A549 NSCLC
ACHN renal = tested on: ACHN renal
BT-549 breast = tested on: BT-549 breast
CAKI-1 renal = tested on: CAKI-1 renal
CCRF-CEM leukemia = tested on: CCRF-CEM leukemia
COLO 205 colon = tested on: COLO 205 colon
DU-145 prostate = tested on: DU-145 prostate
EKVX NSCLC = tested on: EKVX NSCLC
HCC-2998 colon = tested on: HCC-2998 colon
HCT-116 colon = tested on: HCT-116 colon
HCT-15 colon = tested on: HCT-15 colon
HL-60(TB) leukemia = tested on: HL-60(TB) leukemia
HOP-62 NSCLC = tested on: HOP-62 NSCLC
HOP-92 NSCLC = tested on: HOP-92 NSCLC
HS 578T breast = tested on: HS 578T breast
HT29 colon = tested on: HT29 colon
IGROV1 ovarian = tested on: IGROV1 ovarian
K-562 leukemia = tested on: K-562 leukemia
KM12 colon = tested on: KM12 colon
LOX IMVI melanoma = tested on: LOX IMVI melanoma
M14 melanoma = tested on: M14 melanoma
MALME-3M melanoma = tested on: MALME-3M melanoma
MCF7 breast = tested on: MCF7 breast
MDA-MB-231 breast = tested on: MDA-MB-231 breast
MDA-MB-435 melanoma = tested on: MDA-MB-435 melanoma
MDA-MB-468 breast = tested on: MDA-MB-468 breast
MOLT-4 leukemia = tested on: MOLT-4 leukemia
NCI-H226 lung = tested on: NCI-H226 lung
NCI-H23 lung = tested on: NCI-H23 lung
NCI-H322M lung = tested on: NCI-H322M lung
NCI-H460 NSCLC = tested on: NCI-H460 NSCLC
NCI-H522 lung = tested on: NCI-H522 lung
NCI/ADR-RES ovarian = tested on: NCI/ADR-RES ovarian
OVCAR-3 ovarian = tested on: OVCAR-3 ovarian
OVCAR-4 ovarian = tested on: OVCAR-4 ovarian
OVCAR-8 ovarian = tested on: OVCAR-8 ovarian
PC-3 prostate = tested on: PC-3 prostate
RPMI-8226 leukemia = tested on: RPMI-8226 leukemia
RXF 393 renal = tested on: RXF 393 renal
SF-268 CNS = tested on: SF-268 CNS
SF-295 CNS = tested on: SF-295 CNS
SF-539 CNS = tested on: SF-539 CNS
SK-MEL-28 melanoma = tested on: SK-MEL-28 melanoma
SK-MEL-5 melanoma = tested on: SK-MEL-5 melanoma
SK-OV-3 ovarian = tested on: SK-OV-3 ovarian
SN12C renal = tested on: SN12C renal
SNB-19 CNS = tested on: SNB-19 CNS
SNB-75 CNS = tested on: SNB-75 CNS
SR leukemia = tested on: SR leukemia
SW-620 colon = tested on: SW-620 colon
T-47D breast = tested on: T-47D breast
TK-10 renal = tested on: TK-10 renal
U251 glioblastoma = tested on: U251 glioblastoma
UACC-257 melanoma = tested on: UACC-257 melanoma
UACC-62 melanoma = tested on: UACC-62 melanoma
UO-31 renal = tested on: UO-31 renal

## CN1CCN(c2ccc(Nc3ncc4cc(C#N)c(=O)n(C5CCCC5)c4n3)cc2)CC1
786-0 renal
  GI50: 755 nM
  TGI: 28200 nM
A498 renal
  GI50: 1090 nM
  TGI: 7460 nM
A549 NSCLC
  GI50: 1040 nM
  TGI: 16100 nM
ACHN renal
  GI50: 521 nM
  TGI: 22900 nM
BT-549 breast
  GI50: 1750 nM
  TGI: 12200 nM
CAKI-1 renal
  GI50: 259 nM
  TGI: 3090 nM
CCRF-CEM leukemia
  GI50: 365 nM
  TGI: 1720 nM
COLO 205 colon
  GI50: 981 nM
  TGI: > 100000 nM
DU-145 prostate
  GI50: 1560 nM
  TGI: 25800 nM
EKVX NSCLC
  GI50: 6550 nM
  TGI: 27900 nM
HCC-2998 colon
  GI50: 1800 nM
  TGI: 18500 nM
HCT-116 colon
  GI50: 372 nM
  TGI: 11100 nM
HCT-15 colon
  GI50: 837 nM
  TGI: 15400 nM
HL-60(TB) leukemia
  GI50: 94.9 nM
  TGI: 1380 nM
HOP-62 NSCLC
  GI50: 2430 nM
  TGI: 14600 nM
HOP-92 NSCLC
  GI50: 2030 nM
  TGI: 29000 nM
HS 578T breast
  GI50: 1420 nM
  TGI: 3950 nM
HT29 colon
  GI50: 1180 nM
  TGI: > 100000 nM
IGROV1 ovarian
  GI50: 674 nM
  TGI: 11000 nM
K-562 leukemia
  GI50: 462 nM
  TGI: > 100000 nM
KM12 colon
  GI50: 1020 nM
  TGI: 55500 nM
LOX IMVI melanoma
  GI50: 799 nM
  TGI: 13900 nM
M14 melanoma
  GI50: 1070 nM
  TGI: > 100000 nM
MALME-3M melanoma
  GI50: 535 nM
  TGI: 92900 nM
MCF7 breast
  GI50: 299 nM
  TGI: 3680 nM
MDA-MB-231 breast
  GI50: 718 nM
  TGI: > 100000 nM
MDA-MB-435 melanoma
  GI50: 3370 nM
  TGI: 66900 nM
MDA-MB-468 breast
  GI50: 1890 nM
  TGI: 4310 nM
MOLT-4 leukemia
  GI50: 141 nM
  TGI: 532 nM
NCI-H226 lung
  GI50: 457 nM
  TGI: 13800 nM
NCI-H23 lung
  GI50: 1230 nM
  TGI: 18700 nM
NCI-H322M lung
  GI50: 2220 nM
  TGI: 47800 nM
NCI-H460 NSCLC
  GI50: 271 nM
  TGI: 11000 nM
NCI-H522 lung
  GI50: 1200 nM
  TGI: 18900 nM
NCI/ADR-RES ovarian
  GI50: 8590 nM
  TGI: 34900 nM
OVCAR-3 ovarian
  GI50: 3100 nM
  TGI: 14400 nM
OVCAR-4 ovarian
  GI50: 27100 nM
  TGI: > 100000 nM
OVCAR-8 ovarian
  GI50: 4650 nM
  TGI: 37200 nM
PC-3 prostate
  GI50: 819 nM
  TGI: 46500 nM
RPMI-8226 leukemia
  GI50: 79.8 nM
  TGI: 818 nM
RXF 393 renal
  GI50: 727 nM
  TGI: 3140 nM
SF-268 CNS
  GI50: 1650 nM
  TGI: 12600 nM
SF-295 CNS
  GI50: 632 nM
  TGI: 19800 nM
SF-539 CNS
  GI50: 2230 nM
  TGI: 13200 nM
SK-MEL-28 melanoma
  GI50: 8460 nM
  TGI: 72100 nM
SK-MEL-5 melanoma
  GI50: 10900 nM
  TGI: 26600 nM
SK-OV-3 ovarian
  GI50: 1040 nM
  TGI: 29900 nM
SN12C renal
  GI50: 271 nM
  TGI: 4430 nM
SNB-19 CNS
  GI50: 3170 nM
  TGI: > 100000 nM
SNB-75 CNS
  GI50: 1800 nM
  TGI: 10900 nM
SR leukemia
  GI50: 498 nM
  TGI: 1000 nM
SW-620 colon
  GI50: 728 nM
  TGI: 28000 nM
T-47D breast
  GI50: 7400 nM
  TGI: > 100000 nM
TK-10 renal
  GI50: 1320 nM
  TGI: 12400 nM
U251 glioblastoma
  GI50: 1600 nM
  TGI: 22400 nM
UACC-257 melanoma
  GI50: 10800 nM
  TGI: 32100 nM
UACC-62 melanoma
  GI50: 1400 nM
  TGI: 23600 nM
UO-31 renal
  GI50: 551 nM
  TGI: 14800 nM

## O=C(NCc1ccc(S(=O)(=O)c2cc(F)cc(F)c2)cc1)c1ccc2nccn2c1
786-0 renal
  GI50: < 10 nM
  TGI: < 10 nM
A549 NSCLC
  GI50: < 10 nM
  TGI: 20.3 nM
ACHN renal
  GI50: < 10 nM
  TGI: < 10 nM
BT-549 breast
  GI50: < 10 nM
  TGI: < 10 nM
CAKI-1 renal
  GI50: < 10 nM
  TGI: < 10 nM
CCRF-CEM leukemia
  GI50: < 10 nM
  TGI: < 10 nM
COLO 205 colon
  GI50: < 10 nM
  TGI: < 10 nM
DU-145 prostate
  GI50: < 10 nM
  TGI: < 10 nM
EKVX NSCLC
  GI50: < 10 nM
  TGI: 12.4 nM
HCC-2998 colon
  GI50: < 10 nM
  TGI: < 10 nM
HCT-116 colon
  GI50: < 10 nM
  TGI: < 10 nM
HCT-15 colon
  GI50: < 10 nM
  TGI: < 10 nM
HL-60(TB) leukemia
  GI50: < 10 nM
  TGI: < 10 nM
HOP-62 NSCLC
  GI50: < 10 nM
  TGI: < 10 nM
HOP-92 NSCLC
  GI50: 20.4 nM
  TGI: 43.5 nM
HS 578T breast
  GI50: < 10 nM
  TGI: < 10 nM
HT29 colon
  GI50: < 10 nM
  TGI: 10.2 nM
IGROV1 ovarian
  GI50: < 10 nM
  TGI: < 10 nM
K-562 leukemia
  GI50: < 10 nM
  TGI: < 10 nM
KM12 colon
  GI50: < 10 nM
  TGI: < 10 nM
LOX IMVI melanoma
  GI50: < 10 nM
  TGI: 25.7 nM
M14 melanoma
  GI50: < 10 nM
  TGI: < 10 nM
MALME-3M melanoma
  GI50: < 10 nM
  TGI: 27.4 nM
MCF7 breast
  GI50: < 10 nM
  TGI: < 10 nM
MDA-MB-231 breast
  GI50: < 10 nM
  TGI: 18.3 nM
MDA-MB-435 melanoma
  GI50: < 10 nM
  TGI: < 10 nM
MDA-MB-468 breast
  GI50: < 10 nM
  TGI: < 10 nM
MOLT-4 leukemia
  GI50: < 10 nM
  TGI: < 10 nM
NCI-H23 lung
  GI50: < 10 nM
  TGI: < 10 nM
NCI-H322M lung
  GI50: < 10 nM
  TGI: < 10 nM
NCI-H460 NSCLC
  GI50: 11.6 nM
  TGI: 26.3 nM
NCI-H522 lung
  GI50: < 10 nM
  TGI: < 10 nM
NCI/ADR-RES ovarian
  GI50: < 10 nM
  TGI: < 10 nM
OVCAR-3 ovarian
  GI50: < 10 nM
  TGI: < 10 nM
OVCAR-4 ovarian
  GI50: < 10 nM
  TGI: 11.4 nM
OVCAR-8 ovarian
  GI50: < 10 nM
  TGI: < 10 nM
PC-3 prostate
  GI50: < 10 nM
  TGI: < 10 nM
RPMI-8226 leukemia
  GI50: < 10 nM
  TGI: < 10 nM
RXF 393 renal
  GI50: < 10 nM
  TGI: < 10 nM
SF-268 CNS
  GI50: < 10 nM
  TGI: < 10 nM
SF-295 CNS
  GI50: < 10 nM
  TGI: < 10 nM
SF-539 CNS
  GI50: < 10 nM
  TGI: < 10 nM
SK-MEL-28 melanoma
  GI50: < 10 nM
  TGI: < 10 nM
SK-MEL-5 melanoma
  GI50: < 10 nM
  TGI: < 10 nM
SK-OV-3 ovarian
  GI50: < 10 nM
  TGI: < 10 nM
SN12C renal
  GI50: < 10 nM
  TGI: < 10 nM
SNB-19 CNS
  GI50: < 10 nM
  TGI: < 10 nM
SNB-75 CNS
  GI50: < 10 nM
  TGI: < 10 nM
SR leukemia
  GI50: < 10 nM
  TGI: < 10 nM
SW-620 colon
  GI50: < 10 nM
  TGI: < 10 nM
T-47D breast
  GI50: < 10 nM
  TGI: < 10 nM
TK-10 renal
  GI50: < 10 nM
  TGI: < 10 nM
U251 glioblastoma
  GI50: < 10 nM
  TGI: < 10 nM
UACC-62 melanoma
  GI50: < 10 nM
  TGI: < 10 nM
UO-31 renal
  GI50: < 10 nM
  TGI: < 10 nM
